Literature values, collected in patent publication US20240358731A1, “SUMO PATHWAY AS AN OXYGEN SENSOR RELEVANT TO THE PATHOPHYSIOLOGY OF PULMONARY ARTERY HYPERTENSION AND CARDIAC ARRHYTHMIA” (Northeastern University, priority 2023, published 2024).

How the values were obtained:
[1] = system: SENP1 mRNA; settings: cited from earlier work
[2] = system: pfSENP1; settings: cited from earlier work

Compound | SENP1 mRNA levels [1] | pfSENP1 inhibition [2]
CC(C)[C@]12O[C@H]1[C@@H]1O[C@]13[C@]1(O[C@H]1C[C@H]1C4=C(CC[C@@]13C)C(=O)OC4)[C@@H]2O [Triptolide] | decreased SENP1 mRNA levels | 
O=C(O)CN(NC(=O)c1ccc(CNC(=O)c2cccc(C(=O)O)c2)cc1)C(=O)[C@H]1O[C@@H]1C(=O)N(Cc1cccc2ccccc12)Cc1cccc2ccccc12 [JCP-666] |  | inhibitor
